Assay results taken from publication PMC8429728, “TNK1 is a ubiquitin-binding and 14-3-3-regulated kinase that can be targeted to block tumor growth” (Nature Communications, 2021).
Where two headings read alike, the source gives them in different places.

Experiments:
Assay in all cases: biochemical
Design in all cases: Reaction Biology 371-kinase panel at Km ATP, per cent enzyme activity relative to DMSO, single dose in duplicate
Settings in all cases: duplicate measurements, Km ATP
AKT2 = AKT2 (Homo sapiens, UniProt P31751)
Method in brief: (§1)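 Percent kinase activity relative to vehicle (DMSO) is reported for a 371-kinase in vitro panel at 300 nM compound; IC50 values derive from variable-slope sigmoidal fits with the lower plateau fixed at 0.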

IGF1R = IGF1R (Homo sapiens, UniProt P08069)
Method in brief: as §1

NIM1 = molecular target: T1, NIM1 (Homo sapiens, UniProt Q8IY84)
T1 construct: gene NIM1K
Method in brief: as §1

CDK14/cyclin Y (PFTK1) = CDK14/cyclin Y (PFTK1) (Homo sapiens, UniProt O94921)
Method in brief: as §1

LKB1 = molecular target: T2, LKB1 (Homo sapiens, UniProt Q15831)
T2 construct: gene STK11
Method in brief: as §1

TRKC = molecular target: T3, TRKC (Homo sapiens, UniProt Q16288)
T3 construct: gene NTRK3
Method in brief: as §1

PKCtheta = molecular target: T4, PKCtheta (Homo sapiens, UniProt Q04759)
T4 construct: gene PRKCQ
Method in brief: as §1

CLK3 = CLK3 (Homo sapiens, UniProt P49761)
Method in brief: as §1

DMPK = DMPK (Homo sapiens, UniProt Q09013)
Method in brief: as §1

PDGFRb = PDGFRb (Homo sapiens, UniProt P09619)
Method in brief: as §1

TTBK2 = TTBK2 (Homo sapiens, UniProt Q6IQ55)
Method in brief: as §1

CAMKK1 = CAMKK1 (Homo sapiens, UniProt Q8N5S9)
Method in brief: as §1

MSK2/RPS6KA4 = MSK2/RPS6KA4 (Homo sapiens, UniProt O75676)
Method in brief: as §1

MEKK1 = molecular target: T5, MEKK1 (Homo sapiens, UniProt Q13233)
T5 construct: gene MAP3K1
Method in brief: as §1

MSK1/RPS6KA5 = MSK1/RPS6KA5 (Homo sapiens, UniProt O75582)
Method in brief: as §1

RSK2 = molecular target: T6, RSK2 (Homo sapiens, UniProt P51812)
T6 construct: gene RPS6KA3
Method in brief: as §1

SRMS = SRMS (Homo sapiens, UniProt Q9H3Y6)
Method in brief: as §1

CDK8/cyclin C = CDK8/cyclin C (Homo sapiens, UniProt P49336)
Method in brief: as §1

HCK = HCK (Homo sapiens, UniProt P08631)
Method in brief: as §1

MYO3b = MYO3b (Homo sapiens, UniProt Q8WXR4)
Method in brief: as §1

[1] = read-out: % Enzyme Activity (relative to DMSO controls) / TP-0005801 (0.3µM) / Data 1
[2] = read-out: % Enzyme Activity (relative to DMSO controls) / TP-0005801 (0.3µM) / Data 2

T5 sequence (Q13233 whole entry): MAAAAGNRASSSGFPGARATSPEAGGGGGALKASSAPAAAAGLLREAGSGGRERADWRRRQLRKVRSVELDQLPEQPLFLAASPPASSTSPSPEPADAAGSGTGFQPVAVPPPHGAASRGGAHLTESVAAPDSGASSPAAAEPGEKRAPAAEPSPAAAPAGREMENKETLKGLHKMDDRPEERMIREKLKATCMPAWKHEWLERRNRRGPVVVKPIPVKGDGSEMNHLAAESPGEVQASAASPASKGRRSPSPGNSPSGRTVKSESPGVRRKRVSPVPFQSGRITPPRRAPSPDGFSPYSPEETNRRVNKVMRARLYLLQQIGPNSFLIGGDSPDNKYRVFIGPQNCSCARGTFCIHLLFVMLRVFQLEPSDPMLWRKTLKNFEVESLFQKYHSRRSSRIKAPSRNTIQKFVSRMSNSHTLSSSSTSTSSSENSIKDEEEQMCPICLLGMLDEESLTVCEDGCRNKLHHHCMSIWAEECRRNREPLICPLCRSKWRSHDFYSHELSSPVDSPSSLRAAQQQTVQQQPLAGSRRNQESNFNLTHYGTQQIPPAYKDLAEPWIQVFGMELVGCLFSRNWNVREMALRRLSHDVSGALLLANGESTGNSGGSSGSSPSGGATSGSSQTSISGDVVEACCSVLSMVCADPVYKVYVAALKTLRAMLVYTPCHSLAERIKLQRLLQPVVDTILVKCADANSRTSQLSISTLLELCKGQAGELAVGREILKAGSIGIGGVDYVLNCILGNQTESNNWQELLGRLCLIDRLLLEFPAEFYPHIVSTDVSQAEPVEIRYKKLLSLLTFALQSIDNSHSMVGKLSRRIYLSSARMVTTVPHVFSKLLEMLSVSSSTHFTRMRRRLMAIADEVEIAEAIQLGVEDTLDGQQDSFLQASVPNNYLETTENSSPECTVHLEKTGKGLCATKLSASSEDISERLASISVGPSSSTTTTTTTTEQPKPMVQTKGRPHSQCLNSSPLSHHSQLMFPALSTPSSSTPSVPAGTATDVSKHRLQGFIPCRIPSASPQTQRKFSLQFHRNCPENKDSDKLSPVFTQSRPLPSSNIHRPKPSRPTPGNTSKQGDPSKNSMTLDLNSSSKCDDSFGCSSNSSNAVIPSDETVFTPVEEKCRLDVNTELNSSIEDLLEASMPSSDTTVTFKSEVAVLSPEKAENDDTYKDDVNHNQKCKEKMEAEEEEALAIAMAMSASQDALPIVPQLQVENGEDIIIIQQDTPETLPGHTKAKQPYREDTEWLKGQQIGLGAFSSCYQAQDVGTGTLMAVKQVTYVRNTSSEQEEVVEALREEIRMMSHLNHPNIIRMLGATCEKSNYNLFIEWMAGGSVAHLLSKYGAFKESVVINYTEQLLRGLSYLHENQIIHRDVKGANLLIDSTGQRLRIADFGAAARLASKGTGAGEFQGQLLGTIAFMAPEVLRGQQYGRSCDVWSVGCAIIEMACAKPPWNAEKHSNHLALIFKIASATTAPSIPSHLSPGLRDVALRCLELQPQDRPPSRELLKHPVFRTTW
Chain of MYO3b (Q8WXR4 whole entry): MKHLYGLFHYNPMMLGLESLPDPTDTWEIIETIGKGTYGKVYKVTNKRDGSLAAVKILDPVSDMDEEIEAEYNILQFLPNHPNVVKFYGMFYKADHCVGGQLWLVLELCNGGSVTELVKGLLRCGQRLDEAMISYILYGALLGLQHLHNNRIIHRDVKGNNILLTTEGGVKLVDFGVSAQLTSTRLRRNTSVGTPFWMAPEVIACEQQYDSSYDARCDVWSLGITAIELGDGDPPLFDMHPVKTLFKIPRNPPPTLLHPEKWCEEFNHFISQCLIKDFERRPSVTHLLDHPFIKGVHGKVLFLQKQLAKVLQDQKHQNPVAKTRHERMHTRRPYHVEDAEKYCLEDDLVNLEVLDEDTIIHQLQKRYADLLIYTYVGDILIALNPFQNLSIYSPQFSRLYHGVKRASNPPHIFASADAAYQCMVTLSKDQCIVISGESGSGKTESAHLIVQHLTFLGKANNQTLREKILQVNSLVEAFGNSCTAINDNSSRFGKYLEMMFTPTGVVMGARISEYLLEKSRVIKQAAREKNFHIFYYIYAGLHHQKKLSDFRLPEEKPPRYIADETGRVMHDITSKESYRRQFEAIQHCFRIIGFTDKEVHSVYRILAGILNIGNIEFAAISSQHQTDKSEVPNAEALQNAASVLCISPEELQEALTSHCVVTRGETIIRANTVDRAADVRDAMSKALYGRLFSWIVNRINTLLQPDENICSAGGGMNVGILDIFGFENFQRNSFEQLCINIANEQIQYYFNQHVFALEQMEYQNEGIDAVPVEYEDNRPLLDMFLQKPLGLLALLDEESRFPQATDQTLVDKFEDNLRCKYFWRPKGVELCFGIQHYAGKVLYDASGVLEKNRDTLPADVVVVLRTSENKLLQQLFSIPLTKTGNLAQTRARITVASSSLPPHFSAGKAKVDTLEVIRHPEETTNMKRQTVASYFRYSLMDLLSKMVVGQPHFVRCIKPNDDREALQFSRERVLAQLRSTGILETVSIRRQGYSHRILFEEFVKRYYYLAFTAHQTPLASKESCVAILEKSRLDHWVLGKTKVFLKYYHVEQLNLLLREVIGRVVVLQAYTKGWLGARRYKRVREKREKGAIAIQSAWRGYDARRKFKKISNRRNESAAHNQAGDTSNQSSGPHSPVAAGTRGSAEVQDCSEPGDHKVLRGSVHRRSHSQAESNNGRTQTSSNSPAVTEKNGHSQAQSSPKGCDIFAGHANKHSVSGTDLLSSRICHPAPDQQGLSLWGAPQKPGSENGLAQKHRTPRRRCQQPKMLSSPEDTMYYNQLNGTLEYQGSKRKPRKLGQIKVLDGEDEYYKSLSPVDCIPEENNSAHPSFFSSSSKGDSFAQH
Chain of MSK1/RPS6KA5 (O75582 whole entry): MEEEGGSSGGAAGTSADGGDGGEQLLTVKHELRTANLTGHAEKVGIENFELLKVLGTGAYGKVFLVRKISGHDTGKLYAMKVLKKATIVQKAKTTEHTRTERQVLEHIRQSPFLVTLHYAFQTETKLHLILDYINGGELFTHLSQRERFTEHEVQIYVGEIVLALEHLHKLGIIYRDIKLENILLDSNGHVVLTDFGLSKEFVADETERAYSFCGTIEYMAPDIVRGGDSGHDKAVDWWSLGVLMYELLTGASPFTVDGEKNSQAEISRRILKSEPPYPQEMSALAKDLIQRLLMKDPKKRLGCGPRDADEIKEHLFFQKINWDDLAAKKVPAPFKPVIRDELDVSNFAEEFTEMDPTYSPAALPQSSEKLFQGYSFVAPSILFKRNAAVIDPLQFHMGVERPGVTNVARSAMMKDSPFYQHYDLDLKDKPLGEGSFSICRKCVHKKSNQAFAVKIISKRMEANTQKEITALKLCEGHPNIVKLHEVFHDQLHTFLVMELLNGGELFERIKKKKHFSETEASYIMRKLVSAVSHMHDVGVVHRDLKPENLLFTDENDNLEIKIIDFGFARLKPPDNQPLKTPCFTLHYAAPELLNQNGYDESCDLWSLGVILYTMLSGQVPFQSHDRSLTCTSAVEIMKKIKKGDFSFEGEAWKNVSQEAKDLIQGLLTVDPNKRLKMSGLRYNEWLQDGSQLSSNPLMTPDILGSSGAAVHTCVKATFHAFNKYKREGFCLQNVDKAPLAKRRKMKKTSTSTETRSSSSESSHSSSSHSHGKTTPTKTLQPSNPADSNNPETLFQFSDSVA
T2 sequence (Q15831 whole entry): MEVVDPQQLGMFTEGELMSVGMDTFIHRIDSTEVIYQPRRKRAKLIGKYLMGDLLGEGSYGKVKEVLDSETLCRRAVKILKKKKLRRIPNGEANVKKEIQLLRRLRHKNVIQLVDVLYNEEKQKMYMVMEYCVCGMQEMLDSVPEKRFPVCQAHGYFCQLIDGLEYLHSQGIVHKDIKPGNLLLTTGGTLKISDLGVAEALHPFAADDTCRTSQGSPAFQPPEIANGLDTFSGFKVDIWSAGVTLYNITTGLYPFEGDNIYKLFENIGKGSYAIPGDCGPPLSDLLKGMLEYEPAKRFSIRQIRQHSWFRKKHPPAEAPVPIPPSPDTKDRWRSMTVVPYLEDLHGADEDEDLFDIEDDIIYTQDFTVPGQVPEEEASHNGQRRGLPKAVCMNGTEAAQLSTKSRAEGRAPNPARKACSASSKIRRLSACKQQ
Chain of AKT2 (P31751 whole entry): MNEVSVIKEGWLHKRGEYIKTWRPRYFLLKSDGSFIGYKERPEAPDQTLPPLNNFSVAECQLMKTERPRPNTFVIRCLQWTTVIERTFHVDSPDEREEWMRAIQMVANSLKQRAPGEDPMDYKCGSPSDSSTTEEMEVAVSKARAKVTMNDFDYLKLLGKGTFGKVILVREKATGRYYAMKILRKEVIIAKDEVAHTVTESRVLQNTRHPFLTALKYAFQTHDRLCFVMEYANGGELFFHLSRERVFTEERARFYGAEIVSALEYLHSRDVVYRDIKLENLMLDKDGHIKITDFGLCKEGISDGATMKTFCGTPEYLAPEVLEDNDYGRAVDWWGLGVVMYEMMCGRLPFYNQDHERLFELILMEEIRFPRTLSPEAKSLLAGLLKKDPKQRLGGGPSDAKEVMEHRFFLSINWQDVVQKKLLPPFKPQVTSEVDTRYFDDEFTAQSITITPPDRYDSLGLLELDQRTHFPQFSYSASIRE
Chain of HCK (P08631 whole entry): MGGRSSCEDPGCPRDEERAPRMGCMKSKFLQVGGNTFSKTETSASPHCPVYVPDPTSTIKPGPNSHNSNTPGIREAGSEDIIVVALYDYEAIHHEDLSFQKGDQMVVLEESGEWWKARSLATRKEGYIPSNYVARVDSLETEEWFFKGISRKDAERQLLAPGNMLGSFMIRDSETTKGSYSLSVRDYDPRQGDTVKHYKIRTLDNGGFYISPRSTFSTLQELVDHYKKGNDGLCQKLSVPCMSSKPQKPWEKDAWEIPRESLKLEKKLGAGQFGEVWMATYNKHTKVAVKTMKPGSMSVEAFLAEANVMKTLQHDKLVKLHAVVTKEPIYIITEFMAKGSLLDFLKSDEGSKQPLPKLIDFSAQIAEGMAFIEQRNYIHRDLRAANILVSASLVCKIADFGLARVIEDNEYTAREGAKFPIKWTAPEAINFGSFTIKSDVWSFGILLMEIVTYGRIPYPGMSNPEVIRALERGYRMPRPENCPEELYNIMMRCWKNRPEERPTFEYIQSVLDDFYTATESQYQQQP

COc1cc(N2CCN(C)CC2)c(C)cc1Nc1ncc(Br)c(Nc2cccnc2N(C)C)n1 [TP-5801]
remaining activity at 0.3 µM (AKT2; [1]): 100% | remaining activity at 0.3 µM (AKT2; [2]): 99.9% | remaining activity at 0.3 µM (IGF1R; [1]): 16.7% | remaining activity at 0.3 µM (IGF1R; [2]): 16.2% | remaining activity at 0.3 µM (NIM1; [1]): 102% | remaining activity at 0.3 µM (NIM1; [2]): 95.6% | remaining activity at 0.3 µM (CDK14/cyclin Y (PFTK1); [1]): 91.8% | remaining activity at 0.3 µM (CDK14/cyclin Y (PFTK1); [2]): 90.2% | remaining activity at 0.3 µM (LKB1; [1]): 107% | remaining activity at 0.3 µM (LKB1; [2]): 105% | remaining activity at 0.3 µM (TRKC; [1]): 109% | remaining activity at 0.3 µM (TRKC; [2]): 104% | remaining activity at 0.3 µM (PKCtheta; [1]): 91.3% | remaining activity at 0.3 µM (PKCtheta; [2]): 90.3% | remaining activity at 0.3 µM (CLK3; [1]): 79.1% | remaining activity at 0.3 µM (CLK3; [2]): 77.3% | remaining activity at 0.3 µM (DMPK; [1]): 102% | remaining activity at 0.3 µM (DMPK; [2]): 101% | remaining activity at 0.3 µM (PDGFRb; [1]): 64.4% | remaining activity at 0.3 µM (PDGFRb; [2]): 64% | remaining activity at 0.3 µM (TTBK2; [1]): 90.3% | remaining activity at 0.3 µM (TTBK2; [2]): 83.1% | remaining activity at 0.3 µM (CAMKK1; [1]): 77.1% | remaining activity at 0.3 µM (CAMKK1; [2]): 74% | remaining activity at 0.3 µM (MSK2/RPS6KA4; [1]): 99% | remaining activity at 0.3 µM (MSK2/RPS6KA4; [2]): 95% | remaining activity at 0.3 µM (MEKK1; [1]): 111% | remaining activity at 0.3 µM (MEKK1; [2]): 109% | remaining activity at 0.3 µM (MSK1/RPS6KA5; [1]): 127% | remaining activity at 0.3 µM (MSK1/RPS6KA5; [2]): 123% | remaining activity at 0.3 µM (RSK2; [1]): 90.5% | remaining activity at 0.3 µM (RSK2; [2]): 84.9% | remaining activity at 0.3 µM (SRMS; [1]): 89.9% | remaining activity at 0.3 µM (SRMS; [2]): 89.5% | remaining activity at 0.3 µM (CDK8/cyclin C; [1]): 31.9% | remaining activity at 0.3 µM (CDK8/cyclin C; [2]): 31.6% | remaining activity at 0.3 µM (HCK; [1]): 105% | remaining activity at 0.3 µM (HCK; [2]): 102% | remaining activity at 0.3 µM (MYO3b; [1]): 57.7% | remaining activity at 0.3 µM (MYO3b; [2]): 56.8%
